The text below walks through data of patent publication US20230181536A1, “ANTICANCER COMBINATION THERAPY WITH N-(1-ACRYLOYL-AZETIDIN-3-YL)-2-((1H-INDAZOL-3-YL)AMINO)METHYL)-1H-IMIDAZOLE-5-CARBOXAMIDE INHIBITOR OF KRAS-G12C” (TAIHO PHARMACEUTICAL CO., LTD., priority 2020, published 2023).

SMILES strings stand for the structures.

T1 sequence (P01116 1-169 isoform P01116-2 G12C): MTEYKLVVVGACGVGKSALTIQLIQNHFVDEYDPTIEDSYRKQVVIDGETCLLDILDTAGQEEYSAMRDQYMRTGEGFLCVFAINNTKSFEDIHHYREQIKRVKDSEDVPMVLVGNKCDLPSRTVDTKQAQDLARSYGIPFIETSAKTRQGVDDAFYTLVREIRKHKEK

This assay concerns the target T1, KRAS G12C (Homo sapiens, UniProt P01116, G12C).
T1 construct: KRAS G12C (amino acid region: 1-169)
Nature of the assay: Inhibitory activity on the KRAS G12C nucleotide (GDP-GTP) exchange reaction. Type of assay: biochemical. The settings on record: Bodipy FL GDP-bound KRAS G12C 25 nM; preincubation at 25° C. for 4 hours; SOS1 100 nM, GppNHp 1 μM, reaction for 30 minutes. The procedure: Test Example 2: Evaluation of Inhibitory Activity of Compounds on the KRAS G12C Nucleotide (GDP-GTP) Exchange Reaction
The inhibitory activity of compounds on the exchange reaction of GDP into GppNHp in Bodipy (trademark) FL-bound KRAS G12C was examined by fluorescence measurement using human recombinant KRAS G12C and SOS1 proteins.
For the preparation of KRAS G12C to which Bodipy FL GDP was bound, first, 50 µM KRAS G12C (amino acid region: 1-169) and 1 mM Bodipy FL GDP (Invitrogen, G22360) were incubated for 1 hour in a buffer (20 mM Tris-HCl (pH 7.5), 50 mM NaCl, 1 mM DTT) in ice in the presence of 2.5 mM EDTA. Thereafter, MgCl2 with a final concentration of 10 mM was added, and the mixture was incubated at room temperature for 30 minutes. The protein was allowed to pass through a NAP-5 column to remove free nucleotides and was used for compound evaluation.
For the measurement of the inhibitory activity of compounds on nucleotide exchange reaction, first, the compound of the disclosure was diluted stepwise with dimethyl sulfoxide (DMSO). Subsequently, a solution of the gradually diluted compound of the disclosure in DMSO (the final concentration of DMSO: 5%) and KRAS G12C (25 nM) bound to Bodipy FL GDP were added to a reaction buffer (20 mM Tris-HCl (pH 7.5), 100 mM NaCl, 1 mM MgCl2, 2 mM DTT, 0.1% Tween20), followed by preincubation at 25° C. for 4 hours. Thereafter, Son of Sevenless Homolog 1 (SOS1, amino acid region: 564-1049) and GppNHp (GMPPNP, Jena Bioscience GmbH, NU-401-50) were added such that their final concentration was 100 nM and 1 μM respectively, followed by reaction for 30 minutes. The change in fluorescence intensity of Bodipy FL (excitation wavelength: 485 nm, fluorescence wavelength: 520 nm) immediately after the start of reaction and after 30 minutes from the start of reaction was standardized. The signal value for only DMSO was determined to be 0% inhibition, and the signal value for no addition of GppNHp was determined to be 100% inhibition. The compound concentration at which 50% inhibition is achieved was determined to be the IC50 (nM) and was calculated.
Turning to `C=CC(=O)N1C[C@@H](C)[C@@H](NC(=O)c2c(C(F)F)nc(CNc3n[nH]c4cc(Cl)c(C(C)(C)C)cc34)n2C)C1` [Example 71, N-((3R,4R)-1-acryloyl-4-methylpyrrolidin-3-yl)-2-(((5-(tert-butyl)-6-chloro-1H-indazol-3-yl)amino)methyl)-4-(difluoromethyl)-1-methyl-1H-imidazole-5-carboxamide], the IC50 amounted to 0.117 µM.

As to `C=CC(=O)N1CC(NC(=O)c2c(C)nc(CNc3n[nH]c4cc(Cl)c(C(C)(C)C)cc34)n2CCC)C1` [Example 19, N-(1-acryloylazetidin-3-yl)-2-(((5-(tert-butyl)-6-chloro-1H-indazol-3-yl)amino)methyl)-4-methyl-1-propyl-1H-imidazole-5-carboxamide], the midpoint of inhibition, the IC50, lay at 0.009 µM. To `C=CC(=O)N1CC(NC(=O)c2cnc(CNc3n[nH]c4cc(Cl)c(C(C)(C)C)cc34)s2)C1` [Example 8, N-(1-acryloylazetidin-3-yl)-2-(((5-(tert-butyl)-6-chloro-1H-indazol-3-yl)amino)methyl)thiazole-5-carboxamide] belongs 0.783 µM; to `C/C=C/C(=O)N1CC(NC(=O)c2c(C)nc(CNc3n[nH]c4cc(Cl)c(C(C)(C)C)cc34)n2C(C)C)C1` [Example 81, (E)-N-(1-(but-2-enoyl)azetidin-3-yl)-2-(((5-(tert-butyl)-6-chloro-1H-indazol-3-yl)amino)methyl)-1-isopropyl-4-methyl-1H-imidazole-5-carboxamide], 2.63 µM; to `C=CC(=O)N1CC[C@@H](NC(=O)c2c(Cl)nc(CNc3n[nH]c4cc(Cl)c(C(C)(C)C)cc34)n2C)C1` [Example 73, (R)-N-(1-acryloylpyrrolidin-3-yl)-2-(((5-(tert-butyl)-6-chloro-1H-indazol-3-yl)amino)methyl)-4-chloro-1-methyl-1H-imidazole-5-carboxamide], 0.052 µM. As for `C=CC(=O)N1C[C@@H](O)[C@@H](NC(=O)c2c(C)nc(CNc3n[nH]c4cc(Cl)c(C(C)(C)C)cc34)n2C)C1` [Example 56, N-((3S,4R)-1-acryloyl-4-hydroxypyrrolidin-3-yl)-2-(((5-(tert-butyl)-6-chloro-1H-indazol-3-yl)amino)methyl)-1,4-dimethyl-1H-imidazole-5-carboxamide], the IC50 came to 0.198 µM. To `C=CC(=O)N1CC(NC(=O)c2c(F)nc(CNc3n[nH]c4cc(Cl)c(C(C)(C)C)cc34)n2C)C1` [Example 30, N-(1-acryloylazetidin-3-yl)-2-(((5-(tert-butyl)-6-chloro-1H-indazol-3-yl)amino)methyl)-4-fluoro-1-methyl-1H-imidazole-5-carboxamide] belongs 0.011 µM; to `C=CC(=O)N1CC(NC(=O)c2c(Cl)nc(CNc3n[nH]c4cc(Cl)c(C5(C(F)(F)F)CC5)cc34)n2C(C)C)C1` [Example 44, N-(1-acryloylazetidin-3-yl)-4-chloro-2-(((6-chloro-5-(-(trifluoromethyl)cyclopropyl)-1H-indazol-3-yl)amino)methyl)-1-isopropyl-1H-imidazole-5-carboxamide], 0.18 µM; to `C=CC(=O)N1CC(NC(=O)c2c(C)nc(CNc3n[nH]c4cc(Cl)c(C(C)(C)C)cc34)n2C)C1` [Example 3, N-(1-acryloylazetidin-3-yl)-2-(((5-(tert-butyl)-6-chloro-1H-indazol-3-yl)amino)methyl)-1,4-dimethyl-1H-imidazole-5-carboxamide], 0.009 µM. The molecule `C=CC(=O)N1CC(NC(=O)c2c(Cl)nc(CNc3n[nH]c4cc(Cl)c(C(C)(C)C)cc34)n2[C@@H]2C[C@@H](O)[C@@H](O)C2)C1` [Example 99] returned an IC50 of 0.007 µM.

Take `C=CC(=O)N1CC(NC(=O)c2c(Cl)nc(CNc3n[nH]c4cc(Cl)c(C(C)C)cc34)n2C(C)C)C1` [Example 45, N-(1-acryloylazetidin-3-yl)-4-chloro-2-(((6-chloro-5-isopropyl-1H-indazol-3-yl)amino)methyl)-1-isopropyl-1H-imidazole-5-carboxamide]: the IC50 stood at 0.024 µM.

The molecule `Cc1nc(CNc2n[nH]c3cc(Cl)c(C(C)(C)C)cc23)n(C(C)C)c1C(=O)NC1CN(C(=O)/C=C\Cl)C1` [Example 83, (Z)-2-(((5-(tert-butyl)-6-chloro-1H-indazol-3-yl)amino)methyl)-N-(1-(3-chloroacryloyl)azetidin-3-yl)-1-isopropyl-4-methyl-1H-imidazole-5-carboxamide] came in with an IC50 of 2.35 µM. To `C=CC(=O)N1CC(NC(=O)c2c(Cl)nc(CNc3n[nH]c4cc(Cl)c(C(C)(C)C)cc34)n2-c2ccccn2)C1` [Example 94, N-(1-acryloylazetidin-3-yl)-2-(((5-(tert-butyl)-6-chloro-1H-indazol-3-yl)amino)methyl)-4-chloro-1-(pyridin-2-yl)-1H-imidazole-5-carboxamide] belongs 0.118 µM.

`C=CC(=O)N1C[C@H](NC(=O)c2c(C)nc(CNc3n[nH]c4cc(Cl)c(C(C)(C)C)cc34)n2C)[C@@H](OC)C1` [Example 63, N-((3S,4S)-1-acryloyl-4-methoxypyrrolidin-3-yl)-2-(((5-(tert-butyl)-6-chloro-1H-indazol-3-yl)amino)methyl)-1,4-dimethyl-1H-imidazole-5-carboxamide] came in with a 50% inhibitory concentration (IC50) of 0.084 µM.

Molecule `C=CC(=O)N1C[C@@H](C)[C@@H](NC(=O)c2c(C)nc(CNc3n[nH]c4cc(Cl)c(C(C)(C)C)cc34)n2C)C1` [Example 55, N-((3R,4R)-1-acryloyl-4-methylpyrrolidin-3-yl)-2-(((5-(tert-butyl)-6-chloro-1H-indazol-3-yl)amino)methyl)-1,4-dimethyl-1H-imidazole-5-carboxamide] had an IC50 of 0.024 µM. To `C=CC(=O)N1C[C@H](NC(=O)c2c(F)nc(CNc3n[nH]c4cc(Cl)c(C(C)(C)C)cc34)n2C)[C@@H](F)C1` [Example 75, N-((3S,4S)-1-acryloyl-4-fluoropyrrolidin-3-yl)-2-(((5-(tert-butyl)-6-chloro-1H-indazol-3-yl)amino)methyl)-4-fluoro-1-methyl-1H-imidazole-5-carboxamide] belongs 0.016 µM; to `C=CC(=O)N1CC(NC(=O)c2c(Cl)nc(CNc3n[nH]c4cc(Cl)c(C(C)(C)C)cc34)n2CCOC)C1` [Example 90, N-(1-acryloylazetidin-3-yl)-2-(((5-(tert-butyl)-6-chloro-1H-indazol-3-yl)amino)methyl)-4-chloro-1-(2-methoxyethyl)-1H-imidazole-5-carboxamide], 0.006 µM. In the case of `C=CC(=O)N1CC(NC(=O)c2c(C#N)nc(CNc3n[nH]c4cc(Cl)c(C(C)(C)C)cc34)n2C)C1` [Example 28, N-(1-acryloylazetidin-3-yl)-2-(((5-(tert-butyl)-6-chloro-1H-indazol-3-yl)amino)methyl)-4-cyano-1-methyl-1H-imidazole-5-carboxamide], half-maximal inhibition (IC50) required 0.07 µM.

On to `C=CC(=O)N1C[C@@H](COC)[C@@H](NC(=O)c2c(C)nc(CNc3n[nH]c4cc(Cl)c(C(C)(C)C)cc34)n2C)C1` [Example 67, N-((3R,4R)-1-acryloyl-4-(methoxymethyl)pyrrolidin-3-yl)-2-(((5-(tert-butyl)-6-chloro-1H-indazol-3-yl)amino)methyl)-1,4-dimethyl-1H-imidazole-5-carboxamide], for which 0.024 µM corresponded to half-maximal inhibition (IC50).
